Measurements published in patent US11053207B2, “Indoleamine-2,3-dioxygenase inhibitor and preparation method therefor” (SHANGHAI INSTITUTE OF ORGANIC CHEMISTRY, CHINESE ACADEMY OF …, priority 2014, dated 2021).
“And” between values parts separate entries of the source, which are not always exact repeats. Identical values can stand only once. Like-named read-outs stand apart in the source and are kept apart here.

Tests used:
[1] = target: IDO enzyme (Homo sapiens (Human), UniProt P14902); assay: IDO enzyme inhibitory activity; format: biochemical; conditions: OD321 nm, 60 min
Protocol: Firstly, the IDO gene was amplified by PCR, the PCR amplification products were recovered, and then the pET28a plasmid (purchased from Shanghai Baoman Biotechnology Co., Ltd.) and the IDO gel recovery products were digested with EcoR I and Xho I restriction endonucleases (37° C., digestion for 2 h), electrophorized and recovered. The recovered products were ligated overnight by a T4 ligase and then the ligation products were added to DH5α competent cells, placed on ice for 30 min, heat-shocked at 42° C. for 90 s, cultured on a shaker, and seeded to a plate. Monoclonies were picked, identified by PCR and then by sequencing.
The constructed BL21 containing the pET28a-IDO plasmid was cultured at 37° C. to OD600=0.6-0.8, and a final concentration of 7 μM of chlorine methemoglobin and 1 mM of IPTG (isopropyl-β-D-thiogalactoside) were added for induction at 28° C. for 4 h; after the induction, the cell was centrifuged at 6000 rpm at 4° C., the collected cells were washed once with 20 mM PBS (pH6.5), and centrifuged and collected again.
The collected cells were resuspended with a lysis solution (20 mM PBS pH 6.5), ultrasonically lysed (40% of power, lysis for 20 min, placed on ice), the lysed bacteria were centrifuged at 13000 rpm for 15 min, precipitate was discarded and the supernatant was maintained; the nickel column was equilibrated with the lysis solution (20 mM PBS pH 6.5) for 3 column volumes, and then the lysis supernatant was loaded onto the nickel column; after loading, four column volumes of a rinsing solution (20 mM PBS pH 6.5, 20 mM imidazole) were used for washing, and finally protein was eluted with eluent (20 mM PBS pH 6.5, 250 mM imidazole); the eluted protein solution was dialyzed for 4 h, and the dialysis solution was 20 mM PBS, pH 6.5. After the dialysis, the protein sample was concentrated, packed, flash frozen by liquid nitrogen, and stored at −80° C. for further use.
Firstly, the compound was subject to a 3-fold gradient dilution. 1 μL of each concentration was added to a 96-well plate; 50 μL of the IDO enzyme solution (final concentration 600 ng/100μL) was added: 25 μL of substrate 1 mixture solution was added, 25 μL of substrate 2 mixture solution was added to initiate the reaction. Finally, the plate was read at OD321 nm, 60 min.

[2] = Pharmacokinetics of compound 6 in rats (intragastric, intravenous); format: in vivo, SD rats; conditions: for Vd: read-out: Vss
Protocol: 6 SD rats, male, weight 180-200 g, intragastric or intravenous administration of compound 6 (Table 3):
For intragastric administration, the compound was formulated into a suspension with 1% MC, and for intravenous injection the compound was formulated with DMSO: 20% PEG400 (5:95). Fasting for 12 hours before the test, free drinking water. The rats were all fed 2 hours after administration.
Intragastric administration: 0.25, 0.5, 1.0, 2.0, 4.0, 6.0, 8.0 and 24 h after administration;
Intravenous administration: 5 min, 0.25, 0.5, 1.0, 2.0, 4.0, 6.0, 8.0 and 24 h after administration;
At the above set point, the venous blood was taken from the posterior venous plexus of the rat eyes, and placed in a EDTA-2K tube, centrifuged at 11000 rpm for 5 min, the plasma was separated and frozen in a −20° C. refrigerator.
The concentration of compound 6 in rat plasma was determined by LC/MS/MS.
Pharmacokinetic parameters after administration were calculated using the non-compartmental model of the WinNonlin 5.3 software (Pharsight, USA).
Peak concentration Cmax and peak time Tmax are measured value;
Drug area under the curve AUC0−t value: using trapezoidal method; AUC0−∞=AUC0−t+Ct/ke, Ct is the blood concentration at the last measurable time point, ke is the elimination rate constant;
Elimination half-life t1/2=0.693/ke;
Mean residence time MRT=AUMC/AUC.
Clearance rate CL=D/AUC0−∞;
Steady state distribution volume Vss=CL×MRT
Absolute Bioavailability F=(AUCintragastric×Dintravenous)/(AUCintravenous×Dintragastric)×100%

[3] = intragastric 10 mg/kg, individual rat
[4] = intravenous 1 mg/kg, individual rat
[5] = male, SD, rat, plasma, iv, 1 mg/kg, intravenous 1 mg/kg, individual rat
[6] = male, SD, rat, plasma, iv, 1 mg/kg, intravenous 1 mg/kg, mean
[7] = male, SD, rat, plasma, po, 10 mg/kg, intragastric 10 mg/kg, individual rat
[8] = male, SD, rat, plasma, po, 10 mg/kg, intragastric 10 mg/kg, mean

IDO enzyme, sequence (P14902 whole entry): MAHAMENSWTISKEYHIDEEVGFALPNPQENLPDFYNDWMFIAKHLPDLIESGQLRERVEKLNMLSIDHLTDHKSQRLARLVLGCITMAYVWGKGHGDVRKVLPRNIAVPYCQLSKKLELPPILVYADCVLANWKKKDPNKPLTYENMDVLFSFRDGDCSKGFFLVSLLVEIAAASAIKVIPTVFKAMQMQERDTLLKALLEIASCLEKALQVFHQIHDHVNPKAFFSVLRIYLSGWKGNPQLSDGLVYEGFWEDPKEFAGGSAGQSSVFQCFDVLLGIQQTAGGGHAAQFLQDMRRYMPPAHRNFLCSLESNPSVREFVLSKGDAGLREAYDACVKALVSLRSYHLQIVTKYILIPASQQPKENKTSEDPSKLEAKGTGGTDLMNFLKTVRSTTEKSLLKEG

Question: With `CS(=O)(CCNc1nonc1/C(=N/O)Nc1ccc(F)c(Br)c1)=NC#N` (racemic) [compound 6, (±)(Z)—N-(3-bromo-4-fluorophenyl)-N′-hydroxy-4-((2-(thio-methylsulfoxidecyanoimine)ethyl)amino)-1,2,5-oxadiazole-3-carboxamidine] as the molecule, how does the IC50 [1] read?
Answer: The IC50 was 11 nM.

Question: And the AUC0-t [2, 3]?
Answer: The AUC0-t was 2817 ng·h/mL and 2795 ng·h/mL.

Question: And the “AUC0-∞” value [2, 3]?
Answer: The value was 3007 ng·h/mL and 3008 ng·h/mL.

Question: And the Cmax [2, 3]?
Answer: The Cmax was 854 ng/mL and 659 ng/mL.

Question: And the MRT [2, 3]?
Answer: The MRT was 3.27 h and 3.47 h.

Question: And the Tmax [2, 3]?
Answer: The Tmax was 1.00 h.

Question: What about the t1/2 [2, 3] of the same molecule?
Answer: The t1/2 was 1.80 h.

Question: And the AUC0-t ([2]; intragastric 10 mg/kg, mean)?
Answer: The AUC0-t was 2651 ng·h/mL.

Question: And the AUC0-t [2, 4]?
Answer: The AUC0-t was 505 ng·h/mL and 547 ng·h/mL.

Question: What about the “AUC0-∞” value [2, 4] of the same molecule?
Answer: The value was 534 ng·h/mL and 555 ng·h/mL.

Question: What about the CL [2, 4] of the same molecule?
Answer: The CL was 31.2 mL/min/kg and 30 mL/min/kg.

Question: And the MRT [2, 4]?
Answer: Its MRT is 2.03 h and 1.67 h.

Question: And the Vss [2, 4]?
Answer: Its Vss is 3.79 L/kg and 3.02 L/kg.

Question: What about the t1/2 [2, 4] of the same molecule?
Answer: The t1/2 was 2.51 h and 1.32 h.

Question: What about the AUC0-t ([2]; intravenous 1 mg/kg, mean) of the same molecule?
Answer: The AUC0-t was 533 ng·h/mL.

Question: What about the CL ([2]; intravenous 1 mg/kg, mean) of the same molecule?
Answer: Its CL is 30.3 mL/min/kg.

Question: And the AUC(0-inf) [2, 5]?
Answer: The AUC(0-inf) was 563 ng·h/mL.

Question: What about the clearance [2, 5] of the same molecule?
Answer: The clearance was 29.7 mL/min/kg.

Question: And the half-life [2, 5]?
Answer: Its half-life is 1.71 h.

Question: And the AUC0-t ([2]; male, SD, rat, plasma, iv, 1 mg/kg, intravenous 1 mg/kg, individual rat, read-out: AUC0-t)?
Answer: The AUC0-t was 546 ng·h/mL.

Question: And the MRT ([2]; male, SD, rat, plasma, iv, 1 mg/kg, intravenous 1 mg/kg, individual rat, read-out: MRT)?
Answer: The MRT was 1.91 h.

Question: What about the Vd [2, 5] of the same molecule?
Answer: Its Vd is 3.39 L/kg.

Question: What about the AUC(0-inf) [2, 6] of the same molecule?
Answer: The AUC(0-inf) was 551 ng·h/mL.

Question: And the clearance [2, 6]?
Answer: The clearance was 30.3 mL/min/kg.

Question: What about the half-life [2, 6] of the same molecule?
Answer: Its half-life is 1.85 h.

Question: And the AUC0-t ([2]; male, SD, rat, plasma, iv, 1 mg/kg, intravenous 1 mg/kg, mean, read-out: AUC0-t)?
Answer: Its AUC0-t is 533 ng·h/mL.

Question: And the MRT ([2]; male, SD, rat, plasma, iv, 1 mg/kg, intravenous 1 mg/kg, mean, read-out: MRT)?
Answer: Its MRT is 1.87 h.

Question: What about the Vd [2, 6] of the same molecule?
Answer: Its Vd is 3.4 L/kg.

Question: What about the bioavailability ([2]; male, SD, rat, plasma, oral, intragastric 10 mg/kg vs intravenous 1 mg/kg, dose normalized, read-out: F (absolute bioavailability)) of the same molecule?
Answer: Its bioavailability is 49.8%.

Question: What about the AUC(0-inf) [2, 7] of the same molecule?
Answer: The AUC(0-inf) was 2480 ng·h/mL.

Question: What about the half-life [2, 7] of the same molecule?
Answer: The half-life was 1.58 h.

Question: What about the AUC0-t ([2]; male, SD, rat, plasma, po, 10 mg/kg, intragastric 10 mg/kg, individual rat, read-out: AUC0-t) of the same molecule?
Answer: Its AUC0-t is 2340 ng·h/mL.

Question: What about the Cmax ([2]; male, SD, rat, plasma, po, 10 mg/kg, intragastric 10 mg/kg, individual rat, read-out: Cmax) of the same molecule?
Answer: Its Cmax is 593 ng/mL.

Question: And the MRT ([2]; male, SD, rat, plasma, po, 10 mg/kg, intragastric 10 mg/kg, individual rat, read-out: MRT)?
Answer: Its MRT is 3.35 h.

Question: What about the Tmax ([2]; male, SD, rat, plasma, po, 10 mg/kg, intragastric 10 mg/kg, individual rat, read-out: Tmax) of the same molecule?
Answer: The Tmax was 2 h.

Question: What about the AUC(0-inf) [2, 8] of the same molecule?
Answer: Its AUC(0-inf) is 2830 ng·h/mL.

Question: What about the half-life [2, 8] of the same molecule?
Answer: The half-life was 1.73 h.

Question: And the AUC0-t ([2]; male, SD, rat, plasma, po, 10 mg/kg, intragastric 10 mg/kg, mean, read-out: AUC0-t)?
Answer: Its AUC0-t is 2650 ng·h/mL.

Question: What about the Cmax ([2]; male, SD, rat, plasma, po, 10 mg/kg, intragastric 10 mg/kg, mean, read-out: Cmax) of the same molecule?
Answer: Its Cmax is 702 ng/mL.

Question: What about the MRT ([2]; male, SD, rat, plasma, po, 10 mg/kg, intragastric 10 mg/kg, mean, read-out: MRT) of the same molecule?
Answer: Its MRT is 3.36 h.

Question: And the Tmax ([2]; male, SD, rat, plasma, po, 10 mg/kg, intragastric 10 mg/kg, mean, read-out: Tmax)?
Answer: Its Tmax is 1.33 h.
